Source: PMC6988309, “Preclinical efficacy for a novel tyrosine kinase inhibitor, ArQule 531 against acute myeloid leukemia” (Journal of Hematology & Oncology, 2020)
Where “and” joins values, the source holds several entries; their conditions need not be identical. Identical values can stand only once.

Tests used:
[1] = target: T1, FLT3-WT (Homo sapiens, UniProt P36888); experiment: Biochemical assay of recombinant kinases, FLT3-WT; details: recombinant kinase domain, 10 μmol/L ATP
T1 construct: measured using recombinant protein constructs of kinase domains (Reaction Biology); purchased Reaction Biology
T1 sequence (P36888 610-943 limits assumed): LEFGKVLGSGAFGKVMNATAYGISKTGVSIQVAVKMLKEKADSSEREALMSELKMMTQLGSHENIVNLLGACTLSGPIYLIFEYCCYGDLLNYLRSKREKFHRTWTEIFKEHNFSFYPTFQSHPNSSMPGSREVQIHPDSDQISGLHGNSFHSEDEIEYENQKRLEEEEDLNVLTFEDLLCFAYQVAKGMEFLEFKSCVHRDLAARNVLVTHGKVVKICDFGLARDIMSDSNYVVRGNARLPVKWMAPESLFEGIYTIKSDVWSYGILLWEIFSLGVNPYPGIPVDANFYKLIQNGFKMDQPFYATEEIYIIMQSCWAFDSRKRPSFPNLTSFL
Procedure: Biochemical inhibition of FLT3-WT and FLT3-ITD fusion was measured using recombinant protein constructs of kinase domains (Reaction Biology).

[2] = test system: Ba/F3 FLT3-D835H; experiment: MTT proliferation assay 72 h, Ba/F3 FLT3-D835H; type: cell-based, murine; details: Mus musculus, BaF3, read-out: Estimated absolute µM IC50 and 95% CI
Procedure: (§1) For the MOLM-13 resistant and the Ba/F3-FLT3-ITD/TKD cell lines, cells were treated for 72 h and cell viability was evaluated using MTT assay (Roche Diagnostics. Mannheim. Germany) according to the manufacturer’s instructions.

[3] = test system: Ba/F3 FLT3-ITD/D835H; experiment: MTT proliferation assay 72 h, Ba/F3 FLT3-ITD/D835H; type: cell-based, murine; details: Mus musculus, BaF3, read-out: Estimated absolute µM IC50 and 95% CI
Procedure: as §1

[4] = test system: primary AML patient blasts; experiment: Colony-Forming Unit-Granulocyte and Macrophage (CFU-GM) assay; type: cell-based, human; details: 3 µM, colonies counted after 14 days
Procedure: Primary AML patient samples were treated and plated at 5000–10,000 cells in 1.1 ml methylcellulose supplemented with recombinant human stem cell factor, interleukin 3, granulocyte colony-stimulating factor, and granulocyte-macrophage colony-stimulating factor (MethoCult™, […] Technologies, Vancouver, Canada) per dish in duplicates. Colonies were counted after 14 days when using primary patient samples.
MTS proliferation assay using a human stroma co-culture assay. […] FLT3 wild-type (WT) samples (red) and FLT3-ITD (black). Colony-Forming Unit-Granulocyte and Macrophage (CFU-GM) assay. […] Number of colonies were counted after 14 days (c)

[5] = test system: BTK phosphorylation; experiment: Immunoblot of phospho-BTK; type: cell-based, human; details: AML cell lines; MOLM-13 1 µM for 1 hour (Figure S2)
Procedure: Cells were washed in ice-cold PBS then lysed in 1X Cell Lysis Buffer (CST) supplemented with proteinase and phosphatase inhibitors cocktail (Roche). Pierce BCA Protein Assay was used to quantify the protein lysates (Thermo Fisher Scientific, Waltham, MA). For Immunoblotting, 15–25 μg of protein lysate was prepared in 2X or 4X Laemmeli’s sample buffer (Bio-Rad Laboratories, Hercules, CA) and heated for 5 min at 100 °C. Samples were separated on 8% sodium dodecyl sulfate polyacrylamide gel and transferred onto nitrocellulose membrane (Bio-Rad Laboratories, Hercules, CA). The membranes were blocked for 1 h in Blocker BLOTTO Blocking Buffer (Thermo Fisher Scientific, Waltham, MA) or 5% non-fat milk followed by overnight incubation at 4 °C with primary antibody followed by HRP-conjugated secondary antibodies and visualized with chemiluminescent Pierce ECL Substrate (Thermo Fisher Scientific, Waltham, MA) on X-ray films.
Immunoblot analysis for MOLM-13, MV4-11, and OCI-AML3 AML cell lines (representative of 2-3 independent blots). […] Twenty to 25 μg of total protein lysate was loaded per lane.

[6] = test system: MCL1; experiment: Immunoblot of MCL1 modulation in MOLM-13; type: cell-based, human; details: MOLM-13, serum starved, 20 h treatment
Procedure: Fig. 6 Immunoblot analysis for MCL1 modulation in MOLM-13 FLT3-ITD cell line (representative of two independent blots). Cells were serum starved and treated for 20 h with ARQ 531 alone or in combination with venetoclax. […] GAPDH used as loading control. Band densitometry is done using ImageJ and quantified relative to GAPDH and DMSO treatment (a). In vitro analysis for additive or synergistic activity for ARQ 531 and venetoclax combination. Representative of three MTS proliferation assays. The MOLM-13 cell line was treated with increasing doses of ARQ 531 or venetoclax single agents or a combination of both for 72 h. Three biological replicates were analyzed using Combenefit software implementing the mathematical models for Highest Single Agent (HSA), Loewe, and Bliss (b). […]

[7] = Toxicity in xenograft mouse studies; type: in vivo; details: xenograft mice, 50 mg/kg daily oral
Procedure: All experiments were conducted after approval of The Ohio State University Institutional Animal Care and Use Committee. Mice were randomized and enrolled for daily oral gavage (Q.D.P.O) treatment of vehicle or 50 mg/kg ARQ 531. Mice were treated until reaching early removal criteria (ERC) defined as 20% weight loss, lethargy, hind limb paralysis, moribund, anorexia, dehydration, hunched posture, severe diarrhea, breathing difficulties, or any abnormal neurological symptoms.

[8] = test system: Ba/F3 FLT3-ITD Parental
Procedure: CellTiter 96 Aqueous MTS reagent (Promega, Madison, WI) was added to cells followed by a 3-h incubation at 37 °C, 5% CO2. The absorbance was measured at 490 nm using DTX 880 plate reader and the half maximal inhibitory concentration (IC50) was calculated using GraphPad Prism 7 (GraphPad Software, La Jolla, CA) and SAS/STAT software (SAS v9.4 for Windows, SAS Institute, Inc., Cary, NC).

[9] = design: method as in PMID 30093506; details: cynomolgus monkeys, cited from earlier work
[10] = design: method as in doi:10.1182/blood-2018-99-116338; details: dose escalation study; cited from earlier work

Question: With `O=C(c1ccc(Oc2ccccc2)cc1Cl)c1c[nH]c2ncnc(N[C@@H]3CC[C@@H](CO)OC3)c12` [ARQ 531] as the compound, how does the IC50 [1] read?
Answer: The IC50 was 82 nM.

Question: And the IC50 [2]?
Answer: The IC50 was 1.74 µM.

Question: What about the IC50 [3] of the same compound?
Answer: Its IC50 is 3.76 µM.

Question: What about the “Estimated ratio of colony formation vs. DMSO” value [4] of the same compound?
Answer: Its value is 0.45.

Question: What about the “effect on BTK phosphorylation” value [5] of the same compound?
Answer: The value was “potently inhibits BTK”.

Question: And the MCL1 protein level [6]?
Answer: Its MCL1 protein level is “MCL1 downregulation”.

Question: And the toxicity [7]?
Answer: The toxicity was “lack of toxicity”.

Question: And the IC50 [8]?
Answer: Its IC50 is 2710 nM and 2530 nM.

Question: And the “plasma half-life (t1/2)” value ([9]; not calculated due to absence of elimination phase)?
Answer: Its value is “long plasma half-life”.

Question: And the Tmax ([9]; single 10 mg/kg oral dose)?
Answer: The Tmax was at most 6 h.

Question: And the oral bioavailability ([9]; single 10 mg/kg oral dose)?
Answer: Its oral bioavailability is 72%.

Question: What about the “share of peak concentration present at 24 h” value ([9]; single 10 mg/kg oral dose) of the same compound?
Answer: The value was 75%.

Question: What about the Cmax ([9]; single 10 mg/kg oral dose, read-out: maximum concentration (Cmax)) of the same compound?
Answer: The Cmax was 9 µM.

Question: What about the “treatment emergent adverse events” value [10] of the same compound?
Answer: Its value is “no reported treatment emergent adverse events”.
